Measured values: patent US20110118229A1, “2-ARYLMETHYLAZETIDINE-CARBAPENEM-3-CARBOXYLIC ACID ESTER DERIVATIVE OR ITS SALT, PROCESS FOR THE PREPARATION THEREOF AND PHARMACEUTICAL COMPOSITION COMPRISING THE SAME” (KUKJE PHARM. IND. CO., LTD., priority 2007, published 2011)
Converted amounts (≈) assume the structure as drawn.

Legend:
I.C.R. mice = test: Acute Toxicity Test, oral, mice; format: in vivo; settings: observed 7 days
Experimental: The acute toxicity of the compound of Example 1 was tested using several groups of I.C.R. mice each of 10 mice. 500 mg/kg, 1,000 mg/kg, and 2,000 mg/kg doses of the compound of Example 1 were orally administered. […] Thus, LD50 was placed at a level higher than 2,000 mg/kg. The compound of Example 1 is thus a largely non-toxic antibiotic.
In addition, acute toxicity of the compounds of Examples 10 and 17 was tested using two groups of I.C.R. mice each of 5 mice/2 groups. 1,000 mg/kg, 2,000 mg/kg, and 3,000 mg/kg doses of the compounds of Examples 10 to 17 were orally administered. […] Thus, LD50 was placed at a level higher than 3,000 mg/kg. Therefore, the compounds of Examples 10 to and 17 are non-toxic antibiotics.

[1] = Test of Pharmacokinetics in mice (blood concentration by bioassay); settings: I.C.R mice, 40 mg/kg; for AUC (area under blood concentration curve): bioassay
Experimental: The pharmacokinetics of the compounds of the present invention was determined using mice. […] Blood samples were collected from mice tails at 10 min., 20 min., 30 min., 45 min., 1 hour, 1.5 hours, 2 hours, 3 hours and 4 hours after the administration. […] Blood samples were collected from mice tails in the same manner described above.
The concentrations of each compound in blood were measured using bioassay methods: Agar plate was prepared with agar medium containing 1% Streptococcus Pyogenes 77A culture solution, and the blood samples and the diluted standards (each of which were obtained by dilution of the already-known concentration by two times) were added to wells formed on the plates. The plate was stored at 4° C. for 1 hour to is allow the sample to spread, and incubated at 37° C. for 18 hours. Diameters of each inhibition-circle were measured and then the concentration of the compounds in blood was calculated, based on the calibration curve obtained from the diluted standards.

[2] = Chemical Stability Test (HPLC purity on storage); format: physicochemical
Experimental: 500 mg of the compound prepared in Example 10 was charged into a glass bottle, and HPLC purities of the compound were measured at the condition of 40° C. and a humidity of 75%, at 1 week, 2 week, 3 week, and 1 month. The HPLC purities were obtained by comparing each of the measured HPLC amounts with the initial HPLC amount.

[3] = test system: Enterobacter cloacae ATCC 13880; test: Minimum Inhibitory Concentration (MIC); format: cell-based
Text: (§1) The metabolite has a wide spectrum of antibacterial activities against Gram-negative and Gram-positive bacteria and excellent antibacterial activities against resistant bacteria such as methicillin-resistant Staphylococcus aurus (MRSA) and quinolone-resistant strains (QRS), as in WO2006/025634 by the present inventors.

[4] = test system: Enterobacter cloacae P 99(2)3; test: Minimum Inhibitory Concentration (MIC); format: cell-based
Text: as §1

GBBS ATCC 12386 = test: Minimum Inhibitory Concentration (MIC); format: cell-based
Text: as §1

Klebsiella oxytoca 1082 = test: Minimum Inhibitory Concentration (MIC); format: cell-based; settings: strain 1082
Text: as §1

[5] = test system: Klebsiella pneumoniae ATCC 13883; test: Minimum Inhibitory Concentration (MIC); format: cell-based
Text: as §1

[6] = test system: Moraxella catarrhalis AMP S(3); test: Minimum Inhibitory Concentration (MIC); format: cell-based; settings: 3 strains
Text: as §1

[7] = test system: Salmonella typhimurium 179; test: Minimum Inhibitory Concentration (MIC); format: cell-based; settings: strain 179
Text: as §1

[8] = test system: Staphylococcus aureus (2); test: Minimum Inhibitory Concentration (MIC); format: cell-based; settings: 2 strains
Text: as §1

[9] = test system: Staphylococcus aureus ATCC 29213; test: Minimum Inhibitory Concentration (MIC); format: cell-based
Text: as §1

[10] = test system: Streptococcus ATCC 496 (4); test: Minimum Inhibitory Concentration (MIC); format: cell-based
Text: as §1

[11] = test system: Streptococcus faecium (1); test: Minimum Inhibitory Concentration (MIC); format: cell-based; settings: 1 strain
Text: as §1

[12] = test system: Streptococcus pneumoniae Pen. R (4); test: Minimum Inhibitory Concentration (MIC); format: cell-based; settings: 4 strains
Text: as §1

[13] = test system: Streptococcus pneumoniae Pen. S (4); test: Minimum Inhibitory Concentration (MIC); format: cell-based; settings: 4 strains
Text: as §1

Escherichia coli (4) = test: Minimum Inhibitory Concentration (MIC); format: cell-based; design: unit not given here; settings: 4 strains
Text: as §1

[14] = test system: Klebsiella pneumoniae (4); test: Minimum Inhibitory Concentration (MIC); format: cell-based; design: unit not given here; settings: 4 strains
Text: as §1

[15] = test system: Moraxella catarrhalis AMP R(3); test: Minimum Inhibitory Concentration (MIC); format: cell-based; design: unit not given here; settings: 3 strains
Text: as §1

[16] = test system: Staphylococcus aureus (10), MRSA; test: Minimum Inhibitory Concentration (MIC); format: cell-based; design: unit not given here; settings: 10 strains
Text: as §1

[17] = test system: Staphylococcus aureus (5), QRS; test: Minimum Inhibitory Concentration (MIC); format: cell-based; design: unit not given here; settings: 5 strains
Text: as §1

[18] = test system: Streptococcus Levo. R (4); test: Minimum Inhibitory Concentration (MIC); format: cell-based; design: unit not given here; settings: 4 strains
Text: as §1

[19] = test system: Streptococcus Levo. S (4); test: Minimum Inhibitory Concentration (MIC); format: cell-based; design: unit not given here; settings: 4 strains
Text: as §1

[20] = test system: Streptococcus pyogenes (2); test: Minimum Inhibitory Concentration (MIC); format: cell-based; design: unit not given here; settings: 2 strains
Text: as §1

[21] = oral, 500, 1,000 and 2,000 mg/kg
[22] = oral, 1,000, 2,000 and 3,000 mg/kg

In the case of C[C@@H](O)[C@H]1C(=O)N2C(C(=O)OCOC(=O)C(C)(C)C)=C(SC3CN(Cc4ccc(F)cc4)C3)[C@H](C)[C@H]12 [Example 1, pivaloyloxymethyl(1R,5S,6S)-2-[(1-(4-fluorobenzyl)azetidin-3-yl)thio]-6-[(R)-1-hydroxyethyl]-1-methyl-carbapen-2-em-3-carboxylate], the LD50 (I.C.R. mice; [21]) is reported as “higher than 2,000 mg/kg”, the “body temperature change and weight change” value (I.C.R. mice; [21]) is reported as “no distinct body temperature change nor weight loss were observed” and the death (I.C.R. mice; [21]) is reported as “no mice died”. The “ratio of oral/subcutaneous AUCs” value [1] was “about 52%”, the “Cmax (maximum blood concentration)” value ([1]; PO) was 88.1 µg/mL and the “T1/2 (half time of blood concentration)” value ([1]; PO) was 0.931 h. The “Tmax (time at the point of maximum blood concentration)” value (“Tmax” below) ([1]; PO) was 0.38 h, the “AUC (area under blood concentration curve)” value ([1]; PO) was 117000 ng·h/mL and the “Cmax (maximum blood concentration)” value ([1]; SC) was 97.9 µg/mL. For the same molecule, the “T1/2 (half time of blood concentration)” value ([1]; SC) was 6.28 h, the “Tmax” value ([1]; SC) was 1.76 h and the “AUC (area under blood concentration curve)” value ([1]; SC) was 226000 ng·h/mL.
With CC(OC(=O)OC1CCCCC1)OC(=O)C1=C(SC2CN(Cc3ccc(F)cc3)C2)[C@H](C)[C@@H]2[C@@H]([C@@H](C)O)C(=O)N12 (stereo partly drawn) [Example 3, 1-(cyclohexyloxycarbonyloxy)ethyl(1R,5S,6S)-2-[(1-(4-fluorobenzyl)azetidin-3-yl)thio]-6-[(R)-1-hydroxyethyl]-1-methyl-carbapen-2-em-3-carboxylate] the “ratio of oral/subcutaneous AUCs” value [1] was “about 113%”, the “Cmax (maximum blood concentration)” value ([1]; PO) was 39.0 µg/mL and the “T1/2 (half time of blood concentration)” value ([1]; PO) was 1.43 h. The “Tmax” value ([1]; PO) was 0.59 h, the “AUC (area under blood concentration curve)” value ([1]; PO) was 64500 ng·h/mL and the “Cmax (maximum blood concentration)” value ([1]; SC) was 16.2 µg/mL. The “T1/2 (half time of blood concentration)” value ([1]; SC) was 1.05 h, the “Tmax” value ([1]; SC) was 2.50 h and the “AUC (area under blood concentration curve)” value ([1]; SC) was 56900 ng·h/mL.
In the case of C[C@@H](O)[C@H]1C(=O)N2C(C(=O)OCOC(=O)C(C)(C)C)=C(SC3CN(Cc4ccc(F)cc4)C3)[C@H](C)[C@H]12.O=P(O)(O)O [Example 10, Phosphoric Acid Salt of pivaloyloxymethyl(1R,5S,6S)-2-[(1-(4-fluorobenzyl)azetidin-3-yl)thio]-6-[(R)-1-hydroxyethyl]-1-methyl-carbapen-2-em-3-carboxylate], the “HPLC Purity” value ([2]; 40° C., humidity 75%, 1 month) is reported as 99.69%, the “HPLC Purity” value ([2]; 40° C., humidity 75%, 1 week) is reported as 99.85% and the “HPLC Purity” value ([2]; 40° C., humidity 75%, 2 week) is reported as 99.78%. For the same molecule, the “HPLC Purity” value ([2]; 40° C., humidity 75%, 3 week) was 99.74%, the “HPLC Purity” value ([2]; Initial) was 99.83% and the “body temperature change and weight change” value (I.C.R. mice; [22]) was “no body distinct temperature change nor weight loss were observed”. The death (I.C.R. mice; [22]) was “no mice died”.
For “1-(isopropyloxycarbonyloxy)ethyl(1R,5S,6S)-2-[(1-(4-fluorobenzyl)azetidin-3-yl)thio]-6-[(R)-1-hydroxyethyl]-1-methyl-carbapen-2-em-3-carboxylate [Example 2]”, the “ratio of oral/subcutaneous AUCs” value [1] was “about 54%”, the “Cmax (maximum blood concentration)” value ([1]; PO) was 72.8 µg/mL and the “T1/2 (half time of blood concentration)” value ([1]; PO) was 1.15 h. The “Tmax” value ([1]; PO) was 1.00 h, the “AUC (area under blood concentration curve)” value ([1]; PO) was 94800 ng·h/mL and the “Cmax (maximum blood concentration)” value ([1]; SC) was 66.4 µg/mL. For the same molecule, the “T1/2 (half time of blood concentration)” value ([1]; SC) was 3.92 h, the “Tmax” value ([1]; SC) was 0.75 h and the “AUC (area under blood concentration curve)” value ([1]; SC) was 174000 ng·h/mL.
C[C@@H](O)[C@H]1C(=O)N2C(C(=O)O)=C(SC3CN(Cc4ccc(F)cc4)C3)[C@H](C)[C@H]12 [Preparation Example 4, (1R,5S,6S)-2-[(1-(4-fluorobenzyl)azetidin-3-yl)thio]-6-[(R)-1-hydroxyethyl]-1-methyl-carbapen-2-em-3-carboxylic acid] gave an MIC [3] of 2 µg/mL (≈ 4.92 µM), an MIC [4] of 0.049 µg/mL (≈ 0.121 µM) and an MIC (GBBS ATCC 12386) of 0.03 µg/mL (≈ 0.0738 µM). The MIC (Klebsiella oxytoca 1082) was 0.049 µg/mL (≈ 0.121 µM), the MIC [5] was 0.122 µg/mL (≈ 0.301 µM) and the MIC [6] was < 0.008 µg/mL. It also gave an MIC [7] of 0.049 µg/mL (≈ 0.121 µM), an MIC [8] of 0.002 µg/mL (≈ 0.00492 µM) and an MIC [9] of 0.015 µg/mL (≈ 0.0369 µM). The MIC [10] was 0.03 µg/mL (≈ 0.0738 µM), the MIC [11] was 1.56 µg/mL (≈ 3.85 µM) and the MIC [12] was 0.12 µg/mL (≈ 0.295 µM). The MIC [13] was < 0.008 µg/mL, the MIC (Escherichia coli (4)) was 0.025-0.098 and the MIC [14] was 0.06-0.25. The MIC [15] was 0.03-0.12, the MIC [16] was 0.025-3.125 and the MIC [17] was 0.049-0.391. For the same molecule, the MIC [18] was 0.006-0.12, the MIC [19] was <0.008-0.25 and the MIC [20] was 0.013-0.025. The “Cmax (maximum blood concentration)” value ([1]; PO) was 3.97 µg/mL, the “T1/2 (half time of blood concentration)” value ([1]; PO) was 1.32 h and the “Tmax” value ([1]; PO) was 0.56 h. The “AUC (area under blood concentration curve)” value ([1]; PO) was 8280 ng·h/mL, the “Cmax (maximum blood concentration)” value ([1]; SC) was 68.5 µg/mL and the “T1/2 (half time of blood concentration)” value ([1]; SC) was 0.76 h. The “Tmax” value ([1]; SC) was 0.38 h and the “AUC (area under blood concentration curve)” value ([1]; SC) was 83240 ng·h/mL.
With C[C@@H](O)[C@H]1C(=O)N2C(C(=O)OCOC(=O)C(C)(C)C)=C(SC3CN(Cc4ccc(F)cc4)C3)[C@H](C)[C@H]12.O=C(O)/C=C/C(=O)O [Example 17, Fumaric Acid Salt of pivaloyloxymethyl(1R,5S,6S)-2-[(1-(4-fluorobenzyl)azetidin-3-yl)thio]-6-[(R)-1-hydroxyethyl]-1-methyl-carbapen-2-em-3-carboxylate] the “body temperature change and weight change” value (I.C.R. mice; [22]) was “no body distinct temperature change nor weight loss were observed” and the death (I.C.R. mice; [22]) was “no mice died”.
